In patent publication US20260215412A1, “AGROCHEMICAL FORMULATION” (priority 2023, published 2026):
Values belong to the compound of their own block, whether it stands above or below them.

Assays:
[1] = Solubility of pydiflumetofen in solvents suitable for emulsion production; assay type: physicochemical
Description: The choice of solvent for an agrochemical EC formulation is important and dependent upon the individual active ingredient that is the solute. In addition, the choice of solvent for an emulsifiable concentrate formulation can have an impact on the physical stability, application properties, and biological performance of the agrochemical formulation. In this case the active ingredient is the fungicide pydiflumetofen or 3-difluoromethyl-1-methyl-1H-pyrazole-4-carboxylic acid methoxy-[1-methyl-2-(2,4,6-trichlorophenyl)-ethyl]-amide to give it its IUPAC name (the name “pydiflumetofen” is used herein interchangeably with the IUPAC name 3-difluoromethyl-1-methyl-1H-pyrazole-4-carboxylic acid methoxy-[1-methyl-2-(2,4,6-trichlorophenyl)-ethyl]-amide).

[2] = Emulsion stability / emulsion quality testing upon dilution; assay type: physicochemical; conditions: for suitability as emulsifier for EC formulations of pydiflumetofen: sole surfactant in the test formulations (solo surfactant screens); for emulsion quality of two-way blends: non-ionic surfactant combined with anionic surfactant B^an in two-way blends
Protocol: Test sample of EC formulations of 3-difluoromethyl-1-methyl-1H-pyrazole-4-carboxylic acid methoxy-[1-methyl-2-(2,4,6-trichlorophenyl)-ethyl]-amide were diluted in standard water samples of known hardness (Table 5) in crow receivers, which were then incubated overnight at 5° C. and 30° C.
Emulsion quality was assessed visually after homogenising the samples through inversion, using a scale of 0 to 5 as shown in Table 7 below.
Further visual assessments were carried out 0.5, 2 and 24 hours post homogenisation and the volume of any cream or oil recorded. After 24 hours, the samples were re-homogenised and number of inversions required for re-emulsification was recorded and the samples were re-incubated at 5 or 30 (as appropriate) and a final visual assessment, including by microscopy was carried out.

Compound: CON(C(=O)c1cn(C)nc1C(F)F)C(C)Cc1c(Cl)cc(Cl)cc1Cl (centres unmarked) [pydiflumetofen, 3-difluoromethyl-1-methyl-1H-pyrazole-4-carboxylic acid methoxy-[1-methyl-2-(2,4,6-trichlorophenyl)-ethyl]-amide]
- Solubility of pydiflumetofen at 25° C. % ([1]; solvent Acetophenone): 17.3%
- Solubility of pydiflumetofen at 25° C. % ([1]; solvent Dimethyl lactamide): 9.65%
- Solubility of pydiflumetofen at 25° C. % ([1]; solvent Dowanol DPM): 3.77%
- Solubility of pydiflumetofen at 25° C. % ([1]; solvent Ethyl lactate): 5.74%
- Solubility of pydiflumetofen at 25° C. % ([1]; solvent Gamma butyrolactone): 14.7%
- Solubility of pydiflumetofen at 25° C. % ([1]; solvent Methyl benzoate): 15.1%
- Solubility of pydiflumetofen at 25° C. % ([1]; solvent Octan-1-ol): 0.63%
- Solubility of pydiflumetofen at 25° C. % ([1]; solvent Solvesso 200 ND/ULN): 5.85%
- Solubility of pydiflumetofen at 25° C. % ([1]; solvent THFA (Tetrahydrofurfuryl acetate)): 9.7%
- Solubility of pydiflumetofen at 25° C. % ([1]; solvent Tributyl phosphate): 6.18%
- Solubility of pydiflumetofen at 25° C. % ([1]; solvent Triethyl phosphate): 8.82%
- Solubility of pydiflumetofen at 25° C. % ([1]; solvent Trimethylcyclohexanone): 10.2%

Compound: POE (11)-synthetic primary C12/C15 alcohol [B^ni]
- emulsion quality of two-way blends [2]: better quality emulsions overall
- suitability as emulsifier for EC formulations of pydiflumetofen [2]: most promising

More lines, now with the values ahead:

- suitability as emulsifier for EC formulations of pydiflumetofen [2]: most promising
Compound: Block copolymer of poyhrdroxystearic acid and polyalkylene glycol [C^ni]

- emulsion quality of two-way blends [2]: better quality emulsions overall
Compound: Castor oil ethoxylate [A^ni]

- emulsion quality of two-way blends [2]: better quality emulsions overall
Compound: Polyoxyethylene sorbitan monolaurate [D^ni]
